From ChEMBL document CHEMBL1201862, “PubChem BioAssay data set” (2004)
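Test compounds were applied to cells in 96-well plates for 48 hours at 5 doses. The concentration for 50% growth inhibition is given as GI50.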 Active and inactive are the calls of the source. Rule as the data show it: active = GI50 up to about 1.1 µM and inactive = higher.

Assays:
Experiment in all cases: inhibition of tumour cell growth, NCI panel, 48 h
HL-60 = system: HL-60
Hs-578T = system: Hs-578T
HT-29 = system: HT-29
DU-145 = system: DU-145
HCT-116 = system: HCT-116
SNB-19 = system: SNB-19
NCI-H460 = system: NCI-H460
KM12 = system: KM12
IGROV-1 = system: IGROV-1
SK-OV-3 = system: SK-OV-3
CCRF-CEM = system: CCRF-CEM
A549 = system: A549
SW-620 = system: SW-620
NCI-H522 = system: NCI-H522
NCI-H23 = system: NCI-H23
SK-MEL-5 = system: SK-MEL-5
UO-31 = system: UO-31
SF-268 = system: SF-268
SNB-75 = system: SNB-75
T47D = system: T47D
EKVX = system: EKVX
Malme-3M = system: Malme-3M
CAKI-1 = system: CAKI-1
MDA-MB-435 = system: MDA-MB-435
OVCAR-8 = system: OVCAR-8
OVCAR-5 = system: OVCAR-5
MDA-N = system: MDA-N
PC-3 = system: PC-3
OVCAR-4 = system: OVCAR-4
SN12C = system: SN12C
K562 = system: K562
MOLT-4 = system: MOLT-4
SR = system: SR
OVCAR-3 = system: OVCAR-3
MCF7 = system: MCF7
NCI/ADR-RES = system: NCI/ADR-RES
U-251 = system: U-251
LOX IMVI = system: LOX IMVI
UACC-257 = system: UACC-257
MDA-MB-231 = system: MDA-MB-231
NCI-H226 = system: NCI-H226
HOP-92 = system: HOP-92
M14 = system: M14
RXF 393 = system: RXF 393
SF-539 = system: SF-539
TK-10 = system: TK-10
786-0 = system: 786-0
A498 = system: A498
SF-295 = system: SF-295
COLO 205 = system: COLO 205
HCT-15 = system: HCT-15
RPMI-8226 = system: RPMI-8226
SK-MEL-28 = system: SK-MEL-28
ACHN = system: ACHN
SK-MEL-2 = system: SK-MEL-2
HCC 2998 = system: HCC 2998
HOP-62 = system: HOP-62
UACC-62 = system: UACC-62

CC(C)(C)C(=O)C(C(=O)C(C)(C)C)C(=O)C(C)(C)C
GI50 (HL-60): > 100 µM (inactive) | GI50 (Hs-578T): > 100 µM (inactive) | GI50 (HT-29): > 100 µM (inactive) | GI50 (DU-145): > 100 µM (inactive) | GI50 (HCT-116): > 100 µM (inactive) | GI50 (SNB-19): > 100 µM (inactive) | GI50 (NCI-H460): > 100 µM (inactive) | GI50 (KM12): > 100 µM (inactive) | GI50 (IGROV-1): > 100 µM (inactive) | GI50 (SK-OV-3): 43.5 µM (inactive) | GI50 (CCRF-CEM): > 100 µM (inactive) | GI50 (A549): > 100 µM (inactive) | GI50 (SW-620): > 100 µM (inactive) | GI50 (NCI-H522): > 100 µM (inactive) | GI50 (NCI-H23): > 100 µM (inactive) | GI50 (SK-MEL-5): > 100 µM (inactive) | GI50 (UO-31): > 100 µM (inactive) | GI50 (SF-268): > 100 µM (inactive) | GI50 (SNB-75): 71 µM (inactive) | GI50 (T47D): > 100 µM (inactive) | GI50 (EKVX): > 100 µM (inactive) | GI50 (Malme-3M): > 100 µM (inactive) | GI50 (CAKI-1): > 100 µM (inactive) | GI50 (MDA-MB-435): > 100 µM (inactive) | GI50 (OVCAR-8): > 100 µM (inactive) | GI50 (OVCAR-5): > 100 µM (inactive) | GI50 (MDA-N): > 100 µM (inactive) | GI50 (PC-3): > 100 µM (inactive) | GI50 (OVCAR-4): > 100 µM (inactive) | GI50 (SN12C): > 100 µM (inactive) | GI50 (K562): > 100 µM (inactive) | GI50 (MOLT-4): > 100 µM (inactive) | GI50 (SR): > 100 µM (inactive) | GI50 (OVCAR-3): > 100 µM (inactive) | GI50 (MCF7): > 100 µM (inactive) | GI50 (NCI/ADR-RES): > 100 µM (inactive) | GI50 (U-251): > 100 µM (inactive) | GI50 (LOX IMVI): > 100 µM (inactive) | GI50 (UACC-257): > 100 µM (inactive) | GI50 (MDA-MB-231): > 100 µM (inactive) | GI50 (NCI-H226): > 100 µM (inactive) | GI50 (HOP-92): > 100 µM (inactive) | GI50 (M14): > 100 µM (inactive) | GI50 (RXF 393): > 100 µM (inactive) | GI50 (SF-539): > 100 µM (inactive) | GI50 (TK-10): > 100 µM (inactive) | GI50 (786-0): > 100 µM (inactive) | GI50 (A498): > 100 µM (inactive) | GI50 (SF-295): > 100 µM (inactive) | GI50 (COLO 205): > 100 µM (inactive) | GI50 (HCT-15): > 100 µM | GI50 (RPMI-8226): > 100 µM (inactive) | GI50 (SK-MEL-28): > 100 µM (inactive) | GI50 (ACHN): > 100 µM (inactive) | GI50 (SK-MEL-2): > 100 µM (inactive) | GI50 (HCC 2998): > 100 µM (inactive) | GI50 (HOP-62): > 100 µM (inactive)

COc1cc(CNc2nc3cc(C(F)(F)F)ccc3nc2-c2ccccc2)cc(OC)c1OC
GI50 (HL-60): 18.5 µM (inactive) | GI50 (Hs-578T): 37.4 µM (inactive) | GI50 (HT-29): 23.7 µM (inactive) | GI50 (DU-145): 89.7 µM (inactive) | GI50 (HCT-116): 19.1 µM (inactive) | GI50 (SNB-19): > 100 µM (inactive) | GI50 (NCI-H460): 25.4 µM (inactive) | GI50 (KM12): 14.8 µM (inactive) | GI50 (IGROV-1): 25.9 µM (inactive) | GI50 (CCRF-CEM): 24.9 µM (inactive) | GI50 (A549): 37.3 µM (inactive) | GI50 (SW-620): 39.2 µM (inactive) | GI50 (NCI-H522): 22.3 µM (inactive) | GI50 (NCI-H23): 21 µM (inactive) | GI50 (SK-MEL-5): 25.2 µM (inactive) | GI50 (UO-31): 31.6 µM (inactive) | GI50 (SF-268): 40.6 µM (inactive) | GI50 (SNB-75): 5.79 µM (inactive) | GI50 (T47D): 1.65 µM (inactive) | GI50 (EKVX): 10.9 µM (inactive) | GI50 (Malme-3M): 21.3 µM (inactive) | GI50 (CAKI-1): 39.4 µM (inactive) | GI50 (MDA-MB-435): 28.5 µM (inactive) | GI50 (OVCAR-8): 33.2 µM (inactive) | GI50 (MDA-N): 30.6 µM (inactive) | GI50 (SN12C): 24.3 µM (inactive) | GI50 (K562): 22.5 µM (inactive) | GI50 (MOLT-4): 12.9 µM (inactive) | GI50 (SR): 15.9 µM (inactive) | GI50 (OVCAR-3): 24.6 µM (inactive) | GI50 (MCF7): 1.52 µM (inactive) | GI50 (NCI/ADR-RES): 14.8 µM (inactive) | GI50 (U-251): 27 µM (inactive) | GI50 (LOX IMVI): 28.6 µM (inactive) | GI50 (UACC-257): 33.6 µM (inactive) | GI50 (MDA-MB-231): 20.6 µM (inactive) | GI50 (NCI-H226): 32.3 µM (inactive) | GI50 (UACC-62): 8.53 µM (inactive) | GI50 (M14): 30.5 µM (inactive) | GI50 (RXF 393): 10.6 µM (inactive) | GI50 (SF-539): 43.1 µM (inactive) | GI50 (TK-10): > 100 µM (inactive) | GI50 (786-0): 30 µM (inactive) | GI50 (SF-295): 41.8 µM (inactive) | GI50 (COLO 205): 17.1 µM (inactive) | GI50 (HCT-15): 17.3 µM | GI50 (RPMI-8226): 25.6 µM (inactive) | GI50 (SK-MEL-28): 49.7 µM (inactive) | GI50 (ACHN): 16.7 µM (inactive) | GI50 (HCC 2998): 19.8 µM (inactive) | GI50 (HOP-62): 43.5 µM (inactive)
